# How the values were obtained:
# Rattus norvegicus [1] = assay: pH of the gastric juice (Control value = 1.42+/-0.02) of stomach content of pylorus ligated rats was measured (10 mg/kg po of the Compound was administered 1 hr before the pylorus ligation); type: ADME, organism-based; conditions: in vivo
# Rattus norvegicus [2] = assay: pH of the gastric juice (Control value = 1.42+/-0.02) of stomach content of pylorus ligated rats was measured (20 mg/kg po of the Compound was administered 1 hr before the pylorus ligation); type: ADME, organism-based; conditions: in vivo
# Rattus norvegicus [3] = assay: pH of the gastric juice (Control value = 1.42+/-0.02) of stomach content of pylorus ligated rats was measured (5 mg/kg po of the Compound was administered 1 hr before the pylorus ligation); type: ADME, organism-based; conditions: in vivo
# Rattus norvegicus [4] = assay: Acid output from the stomach (control value = 120.3+/-19.7) in pylorus ligated rats (10 mg/kg po of the Compound was administered 1 hr before the pylorus ligation); type: functional
# Rattus norvegicus [5] = assay: Acid output from the stomach (control value = 120.3+/-19.7) in pylorus ligated rats (20 mg/kg po of the Compound was administered 1 hr before the pylorus ligation); type: functional
# Rattus norvegicus [6] = assay: Acid output from the stomach (control value = 120.3+/-19.7) in pylorus ligated rats (5 mg/kg po of the Compound was administered 1 hr before the pylorus ligation); type: functional
# Rattus norvegicus [7] = assay: Percent inhibition of gastric lesions induced by endomethacin was measured, after administration of 7.5 mg/kg po in rats; type: functional; conditions: Stomach
# Rattus norvegicus [8] = assay: Percent inhibition of gastric lesions induced by ethanol was measured, after administration of 10 mg/kg po in rats; type: functional; conditions: Stomach
# Rattus norvegicus [9] = assay: Percent inhibition of gastric lesions induced by ethanol was measured, after administration of 15 mg/kg po in rats; type: functional; conditions: Stomach
# Rattus norvegicus [10] = assay: Percent inhibition of gastric lesions induced by ethanol was measured, after administration of 20 mg/kg po in rats; type: functional; conditions: Stomach
# Rattus norvegicus [11] = assay: Percent inhibition of gastric lesions induced by endomethacin was measured, after administration of 10 mg/kg po in rats; type: functional; conditions: Stomach
# Rattus norvegicus [12] = assay: Percent inhibition of gastric lesions induced by endomethacin was measured, after administration of 2.5 mg/kg po in rats; type: functional; conditions: Stomach
# Rattus norvegicus [13] = assay: Percent inhibition of gastric lesions induced by endomethacin was measured, after administration of 5 mg/kg po in rats; type: functional; conditions: Stomach
# Rattus norvegicus [14] = assay: Reduction in length (control value = 159.2+/-21) of gastric lesions induced by endomethacin was measured, after administration of 20 mg/kg po in rats; type: functional, Stomach
# Rattus norvegicus [15] = assay: Reduction in length (control value = 159.2+/-21) of gastric lesions induced by ethanol was measured, after administration of 10 mg/kg po in rats; type: functional, Stomach
# Rattus norvegicus [16] = assay: Reduction in length (control value = 59.8+/-6) of gastric lesions induced by endomethacin was measured, after administration of 2.5 mg/kg po in rats; type: functional, Stomach
# Rattus norvegicus [17] = assay: Reduction in length (control value = 59.8+/-6) of gastric lesions induced by endomethacin was measured, after administration of 5 mg/kg po in rats; type: functional, Stomach
# Rattus norvegicus [18] = assay: Reduction in length (control value = 59.8+/-6) of gastric lesions induced by endomethacin was measured, after administration of 7.5 mg/kg po in rats; type: functional, Stomach
# Rattus norvegicus [19] = assay: Reduction in length (control value = 159.2+/-21) of gastric lesions induced by ethanol was measured, after administration of 15 mg/kg po in rats; type: functional, Stomach
# Rattus norvegicus [20] = assay: Volume of the gastric juice (Control value = 4.7+/-0.4) of stomach content of pylorus ligated rats was measured (10 mg/kg po of the Compound was administered 1 hr before the pylorus ligation); type: functional
# Rattus norvegicus [21] = assay: Volume of the gastric juice (Control value = 4.7+/-0.4) of stomach content of pylorus ligated rats was measured (5 mg/kg po of the Compound was administered 1 hr before the pylorus ligation); type: functional
# Rattus norvegicus [22] = assay: Volume of the gastric juice (Control value = 4.7+/-0.4) of stomach content of pylorus ligated rats was measured (20 mg/kg po of the Compound was administered 1 hr before the pylorus ligation); type: functional
# Rattus norvegicus [23] = assay: Percent inhibition of gastric lesions induced by ethanol was measured, after administration of 2.5 mg/kg po in rats; type: functional; conditions: Stomach
# Rattus norvegicus [24] = assay: Percent inhibition of gastric lesions induced by ethanol was measured, after administration of 5 mg/kg po in rats; type: functional; conditions: Stomach
# Rattus norvegicus [25] = assay: Reduction in length ((control value = 126+/-9.1) of gastric lesions induced by ethanol was measured, after administration of 5 mg/kg po in rats; type: functional, Stomach
# Rattus norvegicus [26] = assay: Reduction in length (control value = 126+/-9.1) of gastric lesions induced by ethanol was measured, after administration of 2.5 mg/kg po in rats; type: functional, Stomach
smiles,measurement,setting,value
COc1ccc2[nH]c([S+]([O-])Cc3ncc(C)c(OC)c3C)nc2c1 (stereo unspecified) [OMEPRAZOLE],pH,Rattus norvegicus [1],1.8
same,pH,Rattus norvegicus [2],5.54
same,pH,Rattus norvegicus [3],1.63
same,Acid output,Rattus norvegicus [4],46.8 u equiv hr-1
same,Acid output,Rattus norvegicus [5],14.6 u equiv hr-1
same,Acid output,Rattus norvegicus [6],62.6 u equiv hr-1
same,inhibition in vivo at 7.5 mg/kg,Rattus norvegicus [7],86.6%
same,inhibition in vivo at 10 mg/kg,Rattus norvegicus [8],43.1%
same,inhibition in vivo at 15 mg/kg,Rattus norvegicus [9],82%
same,inhibition in vivo at 20 mg/kg,Rattus norvegicus [10],89.4%
same,inhibition in vivo at 10 mg/kg,Rattus norvegicus [11],98.2%
same,inhibition in vivo at 2.5 mg/kg,Rattus norvegicus [12],42.5%
same,inhibition in vivo at 5 mg/kg,Rattus norvegicus [13],58.9%
same,Length,Rattus norvegicus [14],16.9 mm
same,Length,Rattus norvegicus [15],90.6 mm
same,Length,Rattus norvegicus [16],34.4 mm
same,Length,Rattus norvegicus [17],24.6 mm
same,Length,Rattus norvegicus [18],8 mm
same,Length,Rattus norvegicus [19],28.6 mm
same,Volume,Rattus norvegicus [20],2.5 ml 4hr-1
same,Volume,Rattus norvegicus [21],3.3 ml 4hr-1
same,Volume,Rattus norvegicus [22],2.2 ml 4hr-1
C[C@@H](CC[C@@]1(O)O[C@H]2C[C@H]3[C@@H]4CC=C5C[C@@H](O[C@@H]6O[C@H](CO)[C@@H](O)[C@H](O[C@@H]7O[C@H](CO)[C@@H](O)[C@H](O)[C@H]7O)[C@H]6O[C@@H]6O[C@@H](C)[C@H](O)[C@@H](O)[C@H]6O)CC[C@]5(C)[C@H]4CC[C@]3(C)[C@H]2[C@@H]1C)CO[C@@H]1O[C@H](CO)[C@@H](O)[C@H](O)[C@H]1O [PROTOGRACILLIN],inhibition in vivo at 2.5 mg/kg,Rattus norvegicus [23],8.5%
same,inhibition in vivo at 5 mg/kg,Rattus norvegicus [24],14.1%
same,Length,Rattus norvegicus [25],108 mm
same,Length,Rattus norvegicus [26],115 mm

# — ChEMBL document CHEMBL1144970, “Protective effects of steroid saponins from Paris polyphylla var. yunnanensis on ethanol- or indomethacin-induced gastric mucosal lesions in rats: structural requirement for activity and mode of action” (Bioorg Med Chem Lett, 2003)
